The text below walks through data of patent US20170066712A1, “NOVEL MOLECULES THAT SELECTIVELY INHIBIT HISTONE DEACETYLASE 6 RELATIVE TO HISTONE DEACETYLASE” (The Trustees of Columbia University in the City of New York, priority 2011, published 2017).

SMILES strings stand for the structures.

One data set deals with T1, HDAC6 (Homo sapiens, UniProt Q9UBN7).
T1 sequence (Q9UBN7 1-1215): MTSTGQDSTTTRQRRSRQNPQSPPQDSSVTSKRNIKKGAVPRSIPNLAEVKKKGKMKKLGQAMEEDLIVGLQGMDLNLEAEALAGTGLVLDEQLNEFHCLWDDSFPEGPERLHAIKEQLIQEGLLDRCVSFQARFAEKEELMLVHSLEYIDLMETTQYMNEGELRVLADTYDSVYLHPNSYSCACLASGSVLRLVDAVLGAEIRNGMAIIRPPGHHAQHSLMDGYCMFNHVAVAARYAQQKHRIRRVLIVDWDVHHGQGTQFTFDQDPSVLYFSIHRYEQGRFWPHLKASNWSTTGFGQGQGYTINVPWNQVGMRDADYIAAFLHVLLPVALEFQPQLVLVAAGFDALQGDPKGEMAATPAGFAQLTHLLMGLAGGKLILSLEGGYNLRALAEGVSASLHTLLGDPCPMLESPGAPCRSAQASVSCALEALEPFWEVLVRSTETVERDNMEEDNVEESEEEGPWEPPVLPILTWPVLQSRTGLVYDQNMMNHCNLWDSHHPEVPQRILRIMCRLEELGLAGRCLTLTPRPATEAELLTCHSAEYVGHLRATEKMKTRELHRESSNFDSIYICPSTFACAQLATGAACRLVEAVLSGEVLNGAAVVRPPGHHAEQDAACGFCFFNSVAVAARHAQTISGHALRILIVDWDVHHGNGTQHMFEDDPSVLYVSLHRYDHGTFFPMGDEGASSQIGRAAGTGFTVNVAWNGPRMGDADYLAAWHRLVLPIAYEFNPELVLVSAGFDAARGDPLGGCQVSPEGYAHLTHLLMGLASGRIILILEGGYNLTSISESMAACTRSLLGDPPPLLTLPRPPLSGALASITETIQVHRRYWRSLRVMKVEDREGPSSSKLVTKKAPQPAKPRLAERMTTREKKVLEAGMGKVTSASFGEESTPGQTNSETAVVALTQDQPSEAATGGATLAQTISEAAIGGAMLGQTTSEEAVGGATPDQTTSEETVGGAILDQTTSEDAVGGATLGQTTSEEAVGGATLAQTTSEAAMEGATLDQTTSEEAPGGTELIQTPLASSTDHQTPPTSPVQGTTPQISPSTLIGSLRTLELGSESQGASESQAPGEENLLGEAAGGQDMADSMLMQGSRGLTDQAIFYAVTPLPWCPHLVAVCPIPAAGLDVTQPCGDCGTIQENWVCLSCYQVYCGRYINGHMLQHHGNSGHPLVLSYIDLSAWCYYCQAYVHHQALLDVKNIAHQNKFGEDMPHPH
Kind of data set: Recombinant HDAC1 and HDAC6 selective inhibitory potency. Format: biochemical. Here is the method:
(§1) Recombinant HDAC1 and HDAC6 are used to evaluate the selective inhibitory potency of each compound. Cell based assays: Normal cells (Human Foreskin Fibroblast cells), LNCaP (human prostate cancer cells), MCF-7 (human breast cancer cells, A549 (human adenocarcinoma of lung cells) and ARP-1 (human multiple myeloma cells) are used in these assays. Cells were cultured for up to 72 hr without and with the potential HDAC6-selective inhibitor. SAHA was used as a control. Cell number and cell viability were determined by enumeration. Proteins were extracted from cells and assayed for accumulation of acetylated tubulin and acetylated histones. All methods are described in Namdar et al., PNAS, 2010, 107:20003-8. In vivo animal studies: Potential HDAC6 inhibitor compounds are further assayed by administration to mice for up to 5 days with daily injections. Animals are sacrificed and tissues are analyzed for accumulation of acetylated tubulin and acetylated histones.

The next data set relates to acetylated alpha-tubulin. Kind of data set: Accumulation of acetylated alpha-tubulin in LNCaP cells (blot). To be noted: for identified as HDAC6-selective inhibitor: on the basis of accumulation of acetylated tubulin without accumulation of acetylated histones. The format is cell-based, human.
Text: (§2) FIG. 2. Blot showing accumulation of acetylated alpha-tubulin and acetylated histone H3 in LNCaP cells cultured with compound 6. GADPH used as loading control.
as §1

The test system of a further data set is cell motility. As to conditions: Haggarty et al. (6); cited from earlier work.
The subject of another data set is microtubules. To be noted: Haggarty et al. (6); cited from earlier work.
Data set [1] deals with T2, C-terminal catalytic domain of HDAC6 (Homo sapiens, UniProt Q9UBN7).
T2 sequence (Q9UBN7 1-1215): T1 sequence (Q9UBN7 1-1215)
To be noted: Haggarty et al. (6); cited from earlier work.

Data set [2] deals with LNCaP cells. Briefly: Cell growth assay in LNCaP cells. As to conditions: FIG. 3. Format: cell-based, human. The procedure: FIG. 3. Cell growth assay data in LNCaP cells with compound 6.
as §1

The test system of data set [3] is LNCaP cells. Briefly: Cell viability assay in LNCaP cells. Format: cell-based. Here is the method:
FIG. 4. Cell viability assay data in LNCaP cells with compound 6.
as §1

Another data set concerns acetylated histone H3. Kind of data set: Accumulation of acetylated histone H3 in LNCaP cells (blot). Format: cell-based, human. To be noted: FIG. 2.
Text: as §2, §1

The next data set deals with known human HDACs. To be noted: background statement; cited from earlier work.

On to `O=C(NO)Nc1ccc(CC(=O)N(CCO)c2ccccc2)cc1` [Compound 24], for which the “HDAC inhibitor selectivity for HDAC6 relative to HDAC1” value on HDAC6 is “selective for HDAC6 relative to HDAC1”. For the molecule `O=C(NO)c1ccc(CC(=O)N(CCO)c2cccc3cccnc23)cc1` [Compound 14, N-hydroxy-4-(2-((2-hydroxyethyl)(quinolin-8-yl)amino)-2-oxoethyl) benzamide], the “HDAC inhibitor selectivity for HDAC6 relative to HDAC1” value at HDAC6 is on record as “selective for HDAC6 relative to HDAC1”. The “identified as HDAC6-selective inhibitor” value with acetylated alpha-tubulin is given as “HDAC6-selective inhibitors”. Consider `O=C(CN(CCO)c1ccccc1)Nc1ccc(C(=O)NO)cc1` [Compound 30], for which, at HDAC6, the “HDAC inhibitor selectivity for HDAC6 relative to HDAC1” value is “selective for HDAC6 relative to HDAC1”. Still for that read-out and setting: as for `O=C(NO)c1cccc(CC(=O)N(CCO)c2ccccc2)c1` [Compound 79, N-hydroxy-3-(2-((2-hydroxyethyl)(phenyl)amino)-2-oxoethyl) benzamide], the entry is “selective for HDAC6 relative to HDAC1”; as for `O=C(NO)c1cccc2c1ncn2CC(=O)N(CCO)c1ccccc1` [Compound 43], “selective for HDAC6 relative to HDAC1”; as for `O=C(NO)C(=O)Nc1ccc(CC(=O)N(CCO)c2ccccc2)cc1` [Compound 26], “selective for HDAC6 relative to HDAC1”. For `O=C(CCCCCCC(=O)Nc1ccc([C@H]2O[C@@H](CSc3nc(-c4ccccc4)c(-c4ccccc4)o3)C[C@@H](c3ccc(CO)cc3)O2)cc1)NO` [tubacin], in the data set with cell motility, the cell motility result is reported as “decreased cell motility”. The stability of microtubules entry in the data set with microtubules is reported as “did not affect the stability of microtubules”. The “inhibition of C-terminal catalytic domain of HDAC6 (α-tubulin deacetylation)” value in data set [1] is listed as “can be inhibited”. Regarding `O=C(CCc1ccc(C(=O)N(CCO)c2ccccc2)cc1)NO` [Compound 35], the “HDAC inhibitor selectivity for HDAC6 relative to HDAC1” value at HDAC6 is listed as “selective for HDAC6 relative to HDAC1”.

For `O=C(CN(CCO)c1ccccc1)Oc1ccc(C(=O)NO)cc1` [Compound 32], the “HDAC inhibitor selectivity for HDAC6 relative to HDAC1” value on HDAC6 is “selective for HDAC6 relative to HDAC1”. Same read-out and setting: as for `O=C(NO)c1ccc(NCC(=O)N(CCO)c2ccccc2)cc1` [Compound 27], the entry is “selective for HDAC6 relative to HDAC1”; as for `O=C(NO)c1ccc(C(=O)N(CCO)c2ccccc2)cc1` [Compound 33], “selective for HDAC6 relative to HDAC1”. The same measure, in the same setting: as for `O=C(NO)c1cccc2c1ccn2CC(=O)N(CCO)c1ccccc1` [Compound 37], the entry is “selective for HDAC6 relative to HDAC1”; as for `O=C(CCc1ccc(CC(=O)N(CCO)c2ccccc2)cc1)NO` [Compound 36], “selective for HDAC6 relative to HDAC1”. With `O=C(NO)c1ccc(CC(=O)N(CCO)c2ccccc2)cc1` [Compound 6, N-hydroxy-4-(2-((2-hydroxyethyl)(phenyl)amino)-2-oxoethyl) benzamide], in the data set on LNCaP cells [2], the cell number result was “inhibits cell number”. The cell viability result in the data set on LNCaP cells [3] (FIG. 4) is “does not decrease cell viability”. For the same molecule, in the data set on LNCaP cells [3] (concentrations as high as 32 μM), the “death of LNCaP cells” value is reported as “no detectable death of LNCaP cells”. Also, at HDAC6, the “HDAC inhibitor selectivity for HDAC6 relative to HDAC1” value is given as “selective for HDAC6 relative to HDAC1”. Further, the “induction of H3 acetylation” value in the data set on acetylated histone H3 is “without induction of H3 acetylation”. The “levels of tubulin acetylation” value in the data set with acetylated alpha-tubulin (LNCaP cells, FIG. 2) is on record as “significant levels of tubulin acylation were present”. The “levels of tubulin acetylation reached in the absence of histone acetylation, compared with tubacin” value with acetylated alpha-tubulin (in the absence of histone acetylation) is reported as “greater than selective levels with tubacin”. In addition, in the data set with acetylated alpha-tubulin, the “identified as HDAC6-selective inhibitor” value is reported as “HDAC6-selective inhibitors”.

`O=C(Cc1ccc(C(=O)N(CCO)c2ccccc2)cc1)NO` [Compound 34]: the “HDAC inhibitor selectivity for HDAC6 relative to HDAC1” value on HDAC6 is “selective for HDAC6 relative to HDAC1”. Take `O=C(CCCCCCC(=O)Nc1ccccc1)NO` [SAHA, suberoylanilide hydroxamic acid, reference compound]: the “death of LNCaP cells” value in the data set with LNCaP cells [3] (SAHA control) is “kills LNCaP cells”. The “selectivity of inhibitory activity among known human HDACs” value in the data set with known human HDACs is listed as “not selective among the known human HDACs”.

As for `O=C(/C=C/C(=O)Nc1ccc(CC(=O)N(CCO)c2ccccc2)cc1)NO` [Compound 21], on HDAC6, the “HDAC inhibitor selectivity for HDAC6 relative to HDAC1” value was “selective for HDAC6 relative to HDAC1”. For the molecule `O=C(CC(=O)Nc1ccc(CC(=O)N(CCO)c2ccccc2)cc1)NO` [Compound 31], the “HDAC inhibitor selectivity for HDAC6 relative to HDAC1” value on HDAC6 was “selective for HDAC6 relative to HDAC1”.
